Assay results as given in article PMC3750913 (BMC Microbiology, 2013).
Where two headings read alike, the source gives them in different places.

Legend:
MV [1] = test: microbe, parasite or virus in culture; assay type: cell-based, measles virus; conditions: for EC50: MV in CHO-SLAM cells, co-treatment with viral inoculum, read-out: Antiviral effect EC50; for SI (selectivity index, CC50/EC50): MV, CHO-SLAM cells
DENV-2 = test: Viral penetration assay; assay type: cell-based, dengue virus type 2; conditions: DENV-2; shift 4°C to 37°C; Figure 4
HCMV = test: Viral attachment assay, method 1 (host cell infection); assay type: cell-based, human cytomegalovirus; conditions: Human betaherpesvirus 5, HEL, read-out: Window of antiviral effects: Attachment Method 1, inhibitory effect relative to DMSO control
ADV-5 = test: Dose-response antiviral assay (plaque assay); assay type: cell-based, human adenovirus type-5; conditions: Human adenovirus sp.; ADV-5 in A549 cells, co-treatment with viral inoculum; read-out: Antiviral effect EC50
MV [2] = test: Viral cell-to-cell spread assay; assay type: cell-based, measles virus; conditions: for effect on viral plaque size (cell-to-cell spread): MV, Figure 7
XTT cytotoxicity assay = assay type: cell-based
Method: Cells (1 × 10^4 per well of 96-well plate) were treated with the test compounds for 3 days. Treatment effects on cell viability (%) and the 50% cytotoxic concentration (CC50) values of the test compounds were determined based on the XTT (2,3-bis[2-methoxy-4-nitro-5-sulfophenyl]-5-phenylamino)-carbonyl]-2H-tetrazolium hydroxide) assay as previously reported.

HCV [3] = test: Viral attachment assay, method 1 (host cell infection); assay type: cell-based, hepatitis C virus; conditions: for inhibition of virus attachment: HCV, method 1, 4°C, Figure 4; for inhibition at 50 µM: Hepatitis C virus, Huh7.5, read-out: Window of antiviral effects: Attachment Method 1, inhibitory effect relative to DMSO control
HCV [4] = test: Viral cell-to-cell spread assay; assay type: cell-based, hepatitis C virus; conditions: for effect on viral plaque size (cell-to-cell spread): HCV, Figure 7; for inhibition at 50 µM: Hepatitis C virus, Huh7.5, read-out: Window of antiviral effects: Cell-to-cell spread, inhibitory effect relative to DMSO control
Method: (A) Schematic of the experiment (left) with the virus concentration (PFU/well) and step-wise incubation periods (i, ii, iii) indicated for each virus in the table on the right. Virus infections were established (i) in the different cell types by direct inoculation (HCMV, DENV-2, MV, and RSV) or electroporation of viral RNA (HCV; *), and the cell monolayers were washed with citrate buffer or PBS before being covered with an overlay medium that prevents secondary infection. Initial virus plaques were allowed to form in the subsequent infections (ii), and then the test compounds were added to the overlay medium for an additional time of incubation (iii) before analysis of viral plaque size by immune fluorescence microscopy. Five random virus-positive plaques at the endpoint of the experiment were evaluated for each treatment group of viruses, and the data was plotted as “fold change of plaque area” against the size of the initial viral plaques formed prior to test compound treatment. Analyses for (B) HCMV, (C) HCV, (D) DENV-2, (E) MV, and (F) RSV are indicated in each additional panel. The S29 cell line and the FIP inhibitor were included as controls for HCV and MV, respectively. Results shown are means ± SEM from three independent experiments and representative micrographs of the evaluated plaques are provided in Additional file 1 Figure S1, Additional file 2 Figure S2, Additional file 3 Figure S3, Additional file 4 Figure S4 and Additional file 5 Figure S5. See text for details.
The examination of HCV spread is based on previously described protocol with some modifications. Huh-7.5 cells were electroporated with HCV Jc1FLAG2(p7-nsGluc2A) RNA (10 μg) as described above to establish random productive infections in the cell population, and then mixed with naïve cells at a ratio of 1:1 before seeding in 12-well plates. […] Medium was changed 24 h post-electroporation with an overlay medium containing the test drugs or control and 0.5% methylcellulose, and the plates were further incubated for 5 days before analysis of HCV-positive foci through immunostaining.
For immunofluorescence analysis of viral plaque size due to spread, the overlay media were removed and the wells were fixed with ice-cold methanol before blocking with 3% BSA. Samples were then treated at 37°C for 1 h with the respective mouse monoclonal primary antibodies diluted in PBS containing 3% BSA: anti-HCMV gB antibody (1:1,000), anti-NS5A 9E10 antibody for HCV (1:25,000), anti-flavivirus group antibody (1:400) for DENV-2, and anti-RSV fusion protein antibody (1:1,000). After incubation, the wells were washed with PBS three times before applying Alexa Fluor 488 goat anti-mouse IgG (H + L) antibody (Invitrogen), diluted at 1:1,000 (HCMV and RSV) or 1:400 (DENV-2 and HCV) in PBS containing 3% BSA. Following incubation at 37°C for 1 h, the samples were washed with PBS three times prior to visualization by fluorescence microscopy. The fluorescence expression of MV-EGFP could be readily detected without addition of antibodies. Photomicrographs were taken at × 100 magnification (Leica Microsystems; Wetzlar, Germany) and viral plaque sizes were then analyzed with MetaMorph software (Molecular Devices; Sunnyvale, CA, USA). In the case of HCV, cellular nuclei were stained with Hoechst dye (Sigma) prior to visualization and the number of cells in the virus-positive foci was determined. For all virus tested, a total of five random virus-positive plaques were evaluated for each treatment group per independent experiment. Comparison was made between viral plaques stained prior to drug addition and those at the endpoint of the experiment, and the data were plotted as “fold change of plaque area”.

[5] = Measles morbillivirus, read-out: Window of antiviral effects: Cell-to-cell spread, inhibitory effect relative to DMSO control

SMILES | EC50 (MV [1]) [µM] | SI (selectivity index, CC50/EC50) (MV [1]) | EC50 (MV [1]; Measles morbillivirus) [µM] | EC50 (ADV-5) [µM] | effect on viral plaque size (cell-to-cell spread) (MV [2]) | inhibition of virus attachment (HCV [3]) | inhibition at 50 µM (HCV [3]) [%] | effect on viral plaque size (cell-to-cell spread) (HCV [4]) | inhibition at 50 µM (HCV [4]) [%] | further results
O=C1O[C@H]2[C@@H]3OC(=O)c4cc(O)c(O)c(O)c4-c4c(O)c(O)c5oc(=O)c6c(c(O)c(O)c7oc(=O)c4c5c76)-c4c(cc(O)c(O)c4O)C(=O)OC[C@H]3OC(O)[C@@H]2OC(=O)c2cc(O)c(O)c(O)c2-c2c1cc(O)c(O)c2O (mixture of isomers) [PUG, punicalagin] | 25.5 ± 2.94 | 11.13 | < 35 | 197 ± 20.1 | near initial size | 90 – 100% | > 75 | near initial size | > 75 | protection of the host cell from infection during virus penetration (DENV-2): 50 – 90%; inhibition at 40 µM (HCMV): 50 to 75%; inhibition at 50 µM (MV [2]; [5]): > 75%; CC50 at 3 days (XTT cytotoxicity assay; African green monkey, Vero cells, XTT assay, 3 days treatment, read-out: CC50): 151 ± 9.31 µM; CC50 at 3 days (XTT cytotoxicity assay; Chinese hamster, CHO-SLAM cells, XTT assay, 3 days treatment, read-out: CC50): 284 ± 11.5 µM; CC50 at 3 days (XTT cytotoxicity assay; human, A549 cells, 3 days treatment): 319 ± 4.99 µM; CC50 at 3 days (XTT cytotoxicity assay; human, HEL cells, 3 days treatment): 299 ± 9.14 µM; CC50 at 3 days (XTT cytotoxicity assay; human, HEp-2 cells, 3 days treatment): 265 ± 23.7 µM; CC50 at 3 days (XTT cytotoxicity assay; human, Huh-7.5 cells, 3 days treatment): 223 ± 3.41 µM
O=C(O)C[C@@H]1C(=O)O[C@H]2[C@@H]3OC(=O)c4cc(O)c(O)c(O)c4-c4c(cc(O)c(O)c4O)C(=O)OC[C@H]2O[C@@H](OC(=O)c2cc(O)c(O)c(O)c2)[C@@H]3OC(=O)c2cc(O)c(O)c3c2[C@H]1[C@H](O)C(=O)O3 [CHLA, chebulagic acid] | 34.4 ± 4.35 | 10.22 | < 35 | 198 ± 14.1 | near initial size | 90 – 100% | > 75 | near initial size | > 75 | inhibition at 90 µM (MV [2]; [5]): > 75%; CC50 at 3 days (XTT cytotoxicity assay; African green monkey): 160 ± 7.46 µM; CC50 at 3 days (XTT cytotoxicity assay; Chinese hamster): 352 ± 4.54 µM
